The text below walks through data of US20260108547A1, “LEVERAGING L-FUCOSE-MEDIATED SIGNALING TO INDUCE MONOCYTE-DERIVED DENDRITIC CELL POLARIZATION” (H. LEE MOFFITT CANCER CENTER AND RESEARCH INSTITUTE, INC., priority 2022, published 2026).

This experiment deals with SW1 tumors. Description: Volumetric tumor growth, SW1 melanoma in C3H/HeN mice (incl. immunodepletion, FTY720, anti-PD1). Format: in vivo, mouse. The conditions noted are these: SW1 model. The source says: All animals were housed at the Vincent A. Stabile Research building animal facility at H. Lee Moffitt Cancer Center & Research Institute, which is fully accredited by the Association for Assessment and Accreditation of Laboratory Animal Care International (AAALAC, #434), and are managed in accordance with the Guide for the Care and Use of Laboratory Animals (“The Guide”), the Animal Welfare Regulations Title 9 Code of Federal Regulations Subchapter A, “Animal Welfare”, Parts 1-3 (AWR), the Public Health Service Policy on Humane Care and Use of Laboratory Animals (PHS Policy), and by the USF Institutional Animal Care and Use Committee's Principles and Procedures of Animal Care and Use (IACUC Principles). The experiments and protocols detailed in this study received institutional approval by the Moffitt IACUC (RIS00001625). Four-to-six-week-old female C3H/HeN and male C57BL6 mice were purchased from Charles Rivers Laboratories for the indicated experiments. Four-to-six-week-old male NSG mice from the Lau laboratory breeding colony were used for the indicated experiments. Power calculations were used to determine mouse cohort sizes to detect significant changes in tumor sizes. In general, 10 mice per indicated cohort to accommodate for incidental loss of mice due to issues beyond our control (e.g., incidental tumor ulceration that required exclusion from the study). Mouse tumor volumes were measured using length, width and depth divided by 2. At each experimental endpoint, mice were humanely euthanized using CO2 inhalation in accordance to the American Veterinary Medical Association guidelines.
For all mouse models, 1×10^6 melanoma cells were injected subcutaneously in the right hind flanks of each mouse. […] This dosage is within ranges for dietary supplementation with L-fucose and other similar dietary sugars (e.g., D-mannose) in other rodent studies. When the tumors reached −2 cm^3, the animals were sacrificed, and the tumors either processed for flow cytometric profiling or for histological analysis as indicated.
Control vs. mFuk±L-fucose models (FIG. 1 & FIG. 8): SW1 or SM1 mouse melanoma cells were injected into syngeneic C3H/HeN (or NSG) female or C57BL/6 male mice, respectively, as follows: parental SW1 cells for FIG. 1A; parental SM1 cells for FIG. 1E; SW1 cells stably expressing either empty vector (EV) or mouse fucose kinase (mFuk) for FIG. 1L; and parental SW1 cells for FIG. 1M.
Control vs. L-fucose±FTY720 models (FIG. 2): SW1 or SM1 mouse melanoma cells were injected into syngeneic C3H/HeN (or NSG) female or C57BL/6 male mice, respectively. Cells were injected as follows: parental SW1 cells for FIG. 1A; parental SM1 cells for FIG. 1E; SW1 cells stably expressing either empty vector (EV) or mouse fucose kinase (mFuk) for FIG. 1L; and parental SW1 cells for FIG. 1M. FTY720 was administered at 20 μg every 2 days starting on Day 12, just prior to the initiation of LF, until endpoint.
Immunodepletion mouse models (FIG. 1 & FIG. 8): Three days prior to tumor engraftment, PBS (control) or ˜300 μg α-CD4 (20 mg/kg, for immunodepletion, GK1.5, Bioxcell (West Lebanon, NH)) or 0-CD8 (20 mg/kg, for immunodepletion, 2.43, Bioxcell (West Lebanon, NH)) was administered by intraperitoneal injection into the indicated cohorts of mice. Injections of immunodepletion antibody or PBS were continued every 3-4 days until endpoint. Syngeneic recipient C3H/HeN female or C57BL/6 male mice were injected with SW1 or SM1 cells, respectively. […]

Regarding `C[C@H](O)[C@@H](O)[C@@H](O)[C@H](O)C=O` [L-fucose], for the setting “CD4+T cell depletion”, the “reduction of tumor growth” value is given as “completely abrogated”. The “efficacy of anti-PD1 when combined with oral L-fuc” value (L-fuc in combination with anti-PD1) is reported as “did not enhance efficacy of anti-PD1”. The reduced tumor growth runs as follows: (control and CD8+ T cell-depleted mice) > 50%; (oral L-fuc) ~50%.
